In patent US20090203708A1, “NOVEL SUBSTITUTED-1-H-QUINAZOLINE-2,4-DIONE DERIVATIVES, PREPARATION METHOD THEREOF AND PHARMACEUTICAL COMPOSITION CONTAINING THE SAME” (Korea Research Institute of Chemical Technology, priority 2006, published 2009):

Assays:
D2 (hD2L receptor) = target: T1, D2 (hD2L receptor) (Homo sapiens, UniProt P14416); assay: Radioligand binding assay, dopamine D2; settings: [3H] spiperone 1 nM; read-out: Binding affinity IC50 D2
T1 construct: purchased BioSignal Packard Inc., Montreal, Canada
Protocol: (§1) Radioligand binding assays for dopamine receptor family (D1, D2 and D3) were performed according to the protocols provided by the manufacturer of receptor membranes (BioSignal Packard Inc., Montreal, Canada). The radioligands used were [^3H] spiperone (for hD2L and hD3 receptors, 1 nM) and [^3H] YM-09151-2 (hD4.2 receptor, 0.06 nM). Briefly, the buffer used in the D1, D2 and D3 receptor binding assay was 50 mM Tris-HCl (pH 7.4), containing 10 mM MgCl2 and 1 mM EDTA, or 50 mM Tris-HCl (pH 7.4), containing 5 mM MgCl2, 5 mM EDTA, 5 mM KCl, 1.5 mM CaCl2 and 120 mM NaCl. For [^3H] YM-09151-2 receptor binding assays, 50 mM Tris-HCl (pH 7.4) containing 5 mM MgCl2, 5 mM EDTA, 5 mM KCl and 1.5 mM CaCl2, was used as a buffer. Nonspecific binding was determined with haloperidol (10 μM) for D2 and D3 and clozapine (10 μM) for D4 receptors.
(§2) Competition binding studies were carried out with 7-8 concentrations of the test compound run in duplicate tubes, and isotherms from three assays were calculated by computerized nonlinear regression analysis (GraphPad Prism Program, San Diego, […]) to yield median inhibitory concentration (IC50) values.

D4 (hD4.2 receptor) = target: T2, D4 (hD4.2 receptor) (Homo sapiens, UniProt P21917, DEL265-296); assay: Radioligand binding assay, dopamine D4; settings: [3H] YM-09151-2 0.06 nM; read-out: Binding affinity IC50 D4
T2 construct: purchased BioSignal Packard Inc., Montreal, Canada
T2 sequence (P21917 with tags, fused parts or gaps DEL265-296): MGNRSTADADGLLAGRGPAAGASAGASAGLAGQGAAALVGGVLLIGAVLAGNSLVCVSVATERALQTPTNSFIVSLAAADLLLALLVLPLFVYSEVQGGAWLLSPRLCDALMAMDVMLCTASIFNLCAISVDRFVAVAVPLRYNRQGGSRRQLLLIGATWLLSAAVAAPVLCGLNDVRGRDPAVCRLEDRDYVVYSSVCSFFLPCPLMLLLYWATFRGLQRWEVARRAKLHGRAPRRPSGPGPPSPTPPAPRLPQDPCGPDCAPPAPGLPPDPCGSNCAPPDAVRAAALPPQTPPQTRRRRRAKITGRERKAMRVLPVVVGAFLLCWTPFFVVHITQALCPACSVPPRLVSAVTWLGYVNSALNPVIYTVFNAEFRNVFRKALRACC
Protocol: as §1, §2

[1] = target: 5-HT7 (human recombinant receptor, CHO-K1) (Homo sapiens, UniProt P34969); assay: Radioligand binding assay, 5-HT7
[2] = target: T3, 5-HT1a (human recombinant receptor, CHO-K1) (Homo sapiens, UniProt P08908); assay: Radioligand binding assay, 5-HT1a
T3 sequence (P08908 1-422): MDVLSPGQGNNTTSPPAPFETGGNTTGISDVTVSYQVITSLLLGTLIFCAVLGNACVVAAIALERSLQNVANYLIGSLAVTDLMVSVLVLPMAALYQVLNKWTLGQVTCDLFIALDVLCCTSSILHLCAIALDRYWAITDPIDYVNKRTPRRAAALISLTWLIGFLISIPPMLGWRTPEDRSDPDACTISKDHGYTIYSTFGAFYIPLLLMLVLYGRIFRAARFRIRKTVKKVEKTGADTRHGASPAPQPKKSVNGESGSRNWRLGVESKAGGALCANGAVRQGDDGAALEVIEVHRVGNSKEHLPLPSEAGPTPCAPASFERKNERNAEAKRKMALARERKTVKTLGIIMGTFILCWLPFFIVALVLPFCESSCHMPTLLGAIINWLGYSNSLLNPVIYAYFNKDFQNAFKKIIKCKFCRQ

[3] = target: 5-HT2a (human recombinant receptor, CHO-K1) (Homo sapiens, UniProt P28223); assay: Radioligand binding assay, 5-HT2a
[4] = target: T4, 5-HT2c (human recombinant receptor, CHO-K1) (Homo sapiens, UniProt P28335); assay: Radioligand binding assay, 5-HT2c
T4 sequence (P28335 33-458): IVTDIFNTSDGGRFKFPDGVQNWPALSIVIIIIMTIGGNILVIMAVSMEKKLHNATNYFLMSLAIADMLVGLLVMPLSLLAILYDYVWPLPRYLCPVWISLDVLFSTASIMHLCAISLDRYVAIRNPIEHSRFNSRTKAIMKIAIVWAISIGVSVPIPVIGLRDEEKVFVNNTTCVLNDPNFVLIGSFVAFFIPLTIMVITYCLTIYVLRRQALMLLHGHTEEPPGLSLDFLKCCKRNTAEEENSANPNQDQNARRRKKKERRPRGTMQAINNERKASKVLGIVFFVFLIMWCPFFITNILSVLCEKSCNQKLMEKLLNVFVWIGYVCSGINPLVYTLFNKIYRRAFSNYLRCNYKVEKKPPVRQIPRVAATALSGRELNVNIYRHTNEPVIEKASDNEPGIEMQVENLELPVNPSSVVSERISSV

D3 (hD3 receptor) = D3 (hD3 receptor) (Homo sapiens, UniProt P35462); assay: Radioligand binding assay, dopamine D3
[5] = target: human serotonin 5-HT6 receptor (Homo sapiens, UniProt P50406); assay: [3H]LSD binding assay for cloned 5-HT6 receptors
Chain of human serotonin 5-HT6 receptor (P50406 whole entry): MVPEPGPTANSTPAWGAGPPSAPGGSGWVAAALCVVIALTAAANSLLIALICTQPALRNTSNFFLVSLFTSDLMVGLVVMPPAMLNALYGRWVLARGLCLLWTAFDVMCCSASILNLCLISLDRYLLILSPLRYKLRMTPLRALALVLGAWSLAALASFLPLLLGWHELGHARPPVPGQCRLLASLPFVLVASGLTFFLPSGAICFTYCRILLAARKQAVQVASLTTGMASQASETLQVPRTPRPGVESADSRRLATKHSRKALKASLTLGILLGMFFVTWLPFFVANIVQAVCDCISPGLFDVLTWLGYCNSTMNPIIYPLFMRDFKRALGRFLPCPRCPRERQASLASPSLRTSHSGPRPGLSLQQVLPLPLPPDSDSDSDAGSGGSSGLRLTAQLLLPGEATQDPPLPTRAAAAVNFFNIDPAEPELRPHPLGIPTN

Chain of D3 (hD3 receptor) (P35462 whole entry): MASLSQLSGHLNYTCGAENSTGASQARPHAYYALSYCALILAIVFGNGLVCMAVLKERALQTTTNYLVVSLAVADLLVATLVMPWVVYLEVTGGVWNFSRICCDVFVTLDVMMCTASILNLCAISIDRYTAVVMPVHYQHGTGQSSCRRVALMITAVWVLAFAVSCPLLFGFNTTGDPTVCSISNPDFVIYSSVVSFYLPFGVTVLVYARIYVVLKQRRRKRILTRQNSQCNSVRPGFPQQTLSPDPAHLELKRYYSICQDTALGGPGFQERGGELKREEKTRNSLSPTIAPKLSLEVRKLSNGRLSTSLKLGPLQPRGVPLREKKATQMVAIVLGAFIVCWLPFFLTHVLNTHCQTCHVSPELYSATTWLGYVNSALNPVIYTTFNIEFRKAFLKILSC
T1 sequence (P14416 whole entry): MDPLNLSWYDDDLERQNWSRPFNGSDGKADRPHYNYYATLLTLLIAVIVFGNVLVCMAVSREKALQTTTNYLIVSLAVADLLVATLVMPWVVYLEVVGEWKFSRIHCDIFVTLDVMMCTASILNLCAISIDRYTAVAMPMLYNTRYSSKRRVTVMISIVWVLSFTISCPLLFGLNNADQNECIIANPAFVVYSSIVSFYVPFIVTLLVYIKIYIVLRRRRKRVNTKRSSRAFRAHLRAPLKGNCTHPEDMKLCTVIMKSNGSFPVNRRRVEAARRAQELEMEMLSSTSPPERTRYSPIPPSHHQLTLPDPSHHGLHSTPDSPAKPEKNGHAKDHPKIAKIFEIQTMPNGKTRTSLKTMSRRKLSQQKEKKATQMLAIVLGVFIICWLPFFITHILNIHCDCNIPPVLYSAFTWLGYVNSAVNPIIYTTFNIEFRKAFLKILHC
Chain of 5-HT7 (human recombinant receptor, CHO-K1) (P34969 whole entry): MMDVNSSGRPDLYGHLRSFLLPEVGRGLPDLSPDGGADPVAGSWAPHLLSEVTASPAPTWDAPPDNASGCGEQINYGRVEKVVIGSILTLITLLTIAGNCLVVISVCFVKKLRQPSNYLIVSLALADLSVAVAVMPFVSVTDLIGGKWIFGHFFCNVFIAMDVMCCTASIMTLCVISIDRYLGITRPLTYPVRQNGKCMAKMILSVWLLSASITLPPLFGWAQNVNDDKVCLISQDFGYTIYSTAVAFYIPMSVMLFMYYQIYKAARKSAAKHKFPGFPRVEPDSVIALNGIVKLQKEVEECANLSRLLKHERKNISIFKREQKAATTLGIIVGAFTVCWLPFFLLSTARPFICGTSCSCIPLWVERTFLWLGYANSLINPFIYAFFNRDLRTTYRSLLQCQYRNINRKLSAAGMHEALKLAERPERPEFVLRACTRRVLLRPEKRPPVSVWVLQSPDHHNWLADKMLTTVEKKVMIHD
Chain of 5-HT2a (human recombinant receptor, CHO-K1) (P28223 whole entry): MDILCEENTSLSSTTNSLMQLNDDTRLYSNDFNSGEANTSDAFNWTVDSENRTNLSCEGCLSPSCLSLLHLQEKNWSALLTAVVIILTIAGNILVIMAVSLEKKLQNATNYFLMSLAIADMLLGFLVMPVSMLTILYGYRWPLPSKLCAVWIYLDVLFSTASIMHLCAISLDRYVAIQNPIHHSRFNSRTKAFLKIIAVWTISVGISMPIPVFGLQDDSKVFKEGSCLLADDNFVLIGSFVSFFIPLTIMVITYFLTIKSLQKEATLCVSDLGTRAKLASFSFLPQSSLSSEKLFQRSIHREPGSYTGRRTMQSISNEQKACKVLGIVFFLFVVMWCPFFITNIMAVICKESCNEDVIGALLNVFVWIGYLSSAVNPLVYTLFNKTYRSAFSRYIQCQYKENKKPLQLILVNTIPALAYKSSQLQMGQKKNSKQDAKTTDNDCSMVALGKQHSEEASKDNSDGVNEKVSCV

SMILES | IC50 (D2 (hD2L receptor)) | IC50 (D4 (hD4.2 receptor)) | melting point | IC50 [1] | IC50 [2] | IC50 [3] | IC50 [4] | IC50 (D3 (hD3 receptor)) | IC50 [5]
CCCn1c(=O)c2c(N3CCN(C)CC3)cc(Cl)cc2n(Cc2ccccc2)c1=O [Example 3, 1-benzyl-7-chloro-5-(4-methyl-piperazin-1-yl)-3-propyl-1H-quinazoline-2,4-dione] | > 10000 nM | > 10000 nM | 120 to 121 °C | > 10000 nM | > 10000 nM | 718 nM | 3760 nM | 2110 nM | 2 nM
CCCCCCCCn1c(=O)c2c(N3CCN(C)CC3)cc(Cl)cc2n(Cc2ccccc2)c1=O [Example 7, 1-benzyl-7-chloro-5-(4-methyl-piperazin-1-yl)-3-octyl-1H-quinazoline-2,4-dione] | 2760 nM | > 10000 nM | 78 to 80 °C | 2560 nM | 2160 nM | 1140 nM | 1710 nM | 606 nM | 1.5 nM
CN1CCN(c2cc(Cl)cc3c2c(=O)n(Cc2ccccc2F)c(=O)n3Cc2ccccc2)CC1 [Example 11, 1-benzyl-7-chloro-3-(2-fluoro-benzyl)-5-(4-methyl-piperazin-1-yl)-1H-quinazoline-2,4-dione] | > 10000 nM | > 10000 nM | 147 to 149 °C | 4840 nM | 1510 nM | 463 nM | 176 nM | 2660 nM | 1.2 nM
CN1CCN(c2cc(Cl)cc3c2c(=O)n(Cc2cccc(F)c2)c(=O)n3Cc2ccccc2)CC1 [Example 12, 1-benzyl-7-chloro-3-(3-fluoro-benzyl)-5-(4-methyl-piperazin-1-yl)-1H-quinazoline-2,4-dione] | > 10000 nM | > 10000 nM | 148 to 150 °C | 1670 nM | 718 nM | 622 nM | 1060 nM | 490 nM | 1.9 nM
CN1CCN(c2cc(Cl)cc3c2c(=O)n(Cc2ccccc2Br)c(=O)n3Cc2ccccc2)CC1 [Example 14, 1-benzyl-3-(2-bromo-benzyl)-7-chloro-5-(4-methyl-piperazin-1-yl)-1H-quinazoline-2,4-dione] | 3320 nM | > 10000 nM | 91 to 93 °C | 5940 nM | 1080 nM | 394 nM | 728 nM | 480 nM | 0.9 nM
CN1CCN(c2cc(Cl)cc3c2c(=O)n(Cc2ccccc2Cl)c(=O)n3Cc2ccccc2)CC1 [Example 17, 1-benzyl-7-chloro-3-(2-chloro-benzyl)-5-(4-methyl-piperazin-1-yl)-1H-quinazoline-2,4-dione] | > 10000 nM | > 10000 nM | 87 to 92 °C | 2180 nM | 3280 nM | 169 nM | 512 nM | 138 nM | 0.5 nM
CN1CCN(c2cc(Cl)cc3c2c(=O)n(Cc2cccc(Cl)c2)c(=O)n3Cc2ccccc2)CC1 [Example 18, 1-benzyl-7-chloro-3-(3-chloro-benzyl)-5-(4-methyl-piperazin-1-yl)-1H-quinazoline-2,4-dione] | 7320 nM | > 10000 nM | 165 to 169 °C | 1880 nM | 1780 nM | 1380 nM | 748 nM | 339 nM | 2.1 nM
CN1CCN(c2cc(Cl)cc3c2c(=O)n(Cc2ccc(Cl)cc2)c(=O)n3Cc2ccccc2)CC1 [Example 19, 1-benzyl-7-chloro-3-(4-chloro-benzyl)-5-(4-methyl-piperazin-1-yl)-1H-quinazoline-2,4-dione] | 7740 nM | > 10000 nM | 92 to 97 °C | 2210 nM | 3060 nM | 1100 nM | 321 nM | 1010 nM | 3.1 nM
CN1CCN(c2cc(Cl)cc3c2c(=O)n(Cc2cccc(I)c2)c(=O)n3Cc2ccccc2)CC1 [Example 20, 1-benzyl-7-chloro-3-(3-iodo-benzyl)-5-(4-methyl-piperazin-1-yl)-1H-quinazoline-2,4-dione] | > 10000 nM | > 10000 nM | 182 to 184 °C | 1920 nM | 3530 nM | 912 nM | 1050 nM | 615 nM | 1.6 nM
Cc1ccccc1Cn1c(=O)c2c(N3CCN(C)CC3)cc(Cl)cc2n(Cc2ccccc2)c1=O [Example 22, 1-benzyl-7-chloro-3-(2-methyl-benzyl)-5-(4-methyl-piperazin-1-yl)-1H-quinazoline-2,4-dione] | > 10000 nM | > 10000 nM | 92 to 95 °C | 3970 nM | 5780 nM | 663 nM | 216 nM | 1540 nM | 2.1 nM
Cc1ccc(Cn2c(=O)c3c(N4CCN(C)CC4)cc(Cl)cc3n(Cc3ccccc3)c2=O)cc1 [Example 24, 1-benzyl-7-chloro-3-(4-methyl-benzyl)-5-(4-methyl-piperazin-1-yl)-1H-quinazoline-2,4-dione] | > 10000 nM | > 10000 nM | 92 to 97 °C | > 10000 nM | 3210 nM | 733 nM | 599 nM | 435 nM | 2 nM
COc1ccccc1Cn1c(=O)c2c(N3CCN(C)CC3)cc(Cl)cc2n(Cc2ccccc2)c1=O [Example 25, 1-benzyl-7-chloro-3-(2-methoxy-benzyl)-5-(4-methyl-piperazin-1-yl)-1H-quinazoline-2,4-dione] | > 10000 nM | > 10000 nM | 91 to 96 °C | > 10000 nM | 7080 nM | 916 nM | 925 nM | 1330 nM | 1.9 nM
O=c1c2c(N3CCNCC3)cc(Cl)cc2n(Cc2ccccc2)c(=O)n1Cc1ccccc1O [Example 65, 1-benzyl-7-chloro-3-(2-hydroxy-benzyl)-5-piperazin-1-yl-1H-quinazoline-2,4-dione] |  |  | 113 to 130 °C |  |  |  |  |  | 5.9 nM
O=c1c2c(N3CCNCC3)cc(Cl)cc2n(Cc2ccccc2)c(=O)n1Cc1ccccc1[N+](=O)[O-] [Example 66, 1-benzyl-7-chloro-3-(2-nitro-benzyl)-5-piperazin-1-yl-1H-quinazoline-2,4-dione] |  |  | 129 to 134 °C |  |  |  |  |  | 5.7 nM
